According to US11707449B2, “Methods and formulations for treatment of spinobulbar muscular atrophy” (ST. JUDE CHILDREN'S RESEARCH HOSPITAL, INC., priority 2017, dated 2023):

Legend:
[1] = molecular target: T1, AR BF3 binding pocket and Bag-1L (Homo sapiens, UniProt P10275); details: cited from earlier work
T1 sequence (P10275 1-920): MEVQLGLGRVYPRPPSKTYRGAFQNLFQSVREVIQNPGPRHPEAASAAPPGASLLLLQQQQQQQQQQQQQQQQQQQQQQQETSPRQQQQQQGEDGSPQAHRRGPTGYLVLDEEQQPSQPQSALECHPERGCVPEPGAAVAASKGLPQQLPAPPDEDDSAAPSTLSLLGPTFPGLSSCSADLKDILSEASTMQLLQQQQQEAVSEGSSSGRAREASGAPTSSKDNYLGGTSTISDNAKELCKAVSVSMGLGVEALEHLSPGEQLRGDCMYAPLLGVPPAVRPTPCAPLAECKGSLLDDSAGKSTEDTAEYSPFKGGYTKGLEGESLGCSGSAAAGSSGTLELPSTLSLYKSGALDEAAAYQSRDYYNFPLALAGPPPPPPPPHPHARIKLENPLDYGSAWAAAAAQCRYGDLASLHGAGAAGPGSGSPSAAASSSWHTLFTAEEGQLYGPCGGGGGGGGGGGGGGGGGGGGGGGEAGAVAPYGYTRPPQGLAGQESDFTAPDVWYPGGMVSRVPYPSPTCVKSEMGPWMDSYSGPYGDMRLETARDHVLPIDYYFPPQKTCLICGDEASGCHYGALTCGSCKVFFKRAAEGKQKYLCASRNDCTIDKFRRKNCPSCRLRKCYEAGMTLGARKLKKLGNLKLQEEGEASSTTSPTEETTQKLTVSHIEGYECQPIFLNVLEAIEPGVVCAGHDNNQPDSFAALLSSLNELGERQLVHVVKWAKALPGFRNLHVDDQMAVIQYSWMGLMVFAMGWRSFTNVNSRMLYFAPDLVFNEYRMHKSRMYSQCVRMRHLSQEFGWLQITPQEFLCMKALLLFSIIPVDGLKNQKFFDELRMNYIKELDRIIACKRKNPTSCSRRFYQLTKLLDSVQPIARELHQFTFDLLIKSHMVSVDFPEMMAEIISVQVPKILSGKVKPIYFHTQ

[2] = system: flies expressing human AR52Q in pan-neuronal tissues (ELAV>UAS-AR52Q); assay: Viability of SBMA flies (rescue of DHT-induced lethality); format: in vivo, Drosophila; details: flies reared on food containing 1 mM DHT and compound (TA, MEPB 0 to 400 μM)
Source text: UAS-AR52Q, UAS-AR52Q-K720A, and UAS-AR66Q-E897K fly stocks were generated as previously described^8. Fly stocks were crossed to various GAL4 driver lines (ELAV-GAL4 for pan-neuronal, OK371-GAL4 for motor neuron, GMR-GAL4 for eye) to induce expression of the AR transgene in a tissue-specific manner in fly vials containing fly food with either vehicle (1% ethanol +/−0.1% DMSO) or drugs. Upon the presence of progeny, parental flies were removed, and F1 flies were scored for phenotypic analysis. Viability was determined as previously described^40. Briefly, the population frequency of adult F1 SBMA flies (ELAV>UAS-AR52Q or OK371>UAS-AR52Q) and control flies (GAL4-ELAV; CyO-GFP) were determined by the presence or absence of the CyO phenotypic marker. At least three independent biological replicates (F0 crosses) were performed with new drug/food preparations for each treatment group, and a total of at least 50 flies were scored for each treatment group. To determine locomotor activity of SBMA flies, adult F1 flies (OK371>UAS-AR52Q) reared on food containing vehicle or drug were allowed to walk for 90 seconds in one well of a 12-well tissue culture plate while video was recorded using a Leica M205C stereomicroscope and Leica DFC320 digital camera. Videos were recorded for at least 15 flies per treatment group. Tracing of fly movement and analysis of displacement and velocity were performed using ImageJ software. Preparation and staining of larval neuromuscular junctions and ventral ganglions were performed as previously described^8.

SMILES | BF3-Bag-1L binding [1] | SBMA fly viability [2]
Cc1cccc(C)c1OCCSc1nc2ccccc2[nH]1 [CPD49, 2-((2-(2,6-dimethylphenoxy)ethyl)thio)-1H-benzimidazole] | inhibited | 
CC(C)Cc1ccc(C(C)C(=O)O)cc1 (centres unmarked) [ibuprofen] |  | did not
